# Results taken from US20130150399A1, “INHIBITORS OF THE UNFOLDED PROTEIN RESPONSE AND METHODS FOR THEIR USE” (The Board of Trustees of the Leland Stanford Junior …, priority 2006, published 2013).
# Key:
# phospho-JNK1 = test: Western blot of phospho-JNK1 under ER stress, HT1080 cells; format: cell-based, human; details: irestatins 2.5 μM, 2 hour preincubation; Tm 4 μg/ml, 1.5 hrs
# Experimental: Cells (2×10^6) were cultured in 10-cm dishes, collected using a cell scraper at 4° C., and lysed by addition of 150 μl cell lysis buffer [50 mM Tris pH 7.4, 150 mM NaCl, 10% glycerol, 0.5% Triton X-100. 0.5% NP-40, 2 mM Na3VO4, 20 mM beta-glycerophosphate, 10 mM NaF, 1 mM DTT, 1 mM PMSF). Lysates were centrifuged for 5 min at 10,000×g, and proteins (˜40 μg) were resolved by SDS-PAGE followed by semi-dry transfer to nitrocellulose membranes. Membranes were blocked in TBS-5% milk supplemented with 0.1% Tween-20. The blots were then probed overnight with relevant antibodies, washed, and incubated for 2 hours with species-specific secondary antibodies conjugated to horseradish peroxidase. After washing in block solution, immunoreactive material was detected by enhanced chemiluminescence (SuperSignal West Dura Extended, Pierce, Inc., Rockville, Ill.).
# HT1080 cells were exposed to DMSO vehicle (lane 1), irestatin 9389 (2.5 μM; lane 2) for 16 hours or Tm (5 μg/ml; lane 3) for 8 hours. Following treatments, cells were harvested, lysed, and analyzed by immunoblotting using anti-Grp78 antibody (top) or anti-actin (bottom) as a loading control. […] Cell lysates were analyzed by Western immunoblotting using anti-IRE1α (bottom) or anti-phospho-IRE1α antibodies (top). […] Lysates were analyzed by Western blot using antisera specific for phospho-JNK1 (top) or total JNK1 (bottom). […]
# [1] = system: HT1080 tet-off Flag-XBP-1s cells; test: Colony formation of HT1080 tet-off Flag-XBP-1s cells under hypoxia; format: cell-based, human; details: 2.5 μM, hypoxia 48 hours
# Experimental: A. Effect of irestatin 9389 on PERK and ATF6 pathways. HT1080 cells were treated with vehicle alone (lanes 1-4) or 2.5 μM irestatin 9389 (lanes 5-8) and cultured under aerobic conditions for 18 hours (N) or shifted to hypoxia for the indicated times. Protein lysates were analyzed by Western blot analysis using antisera specific for ATF6 (top), CHOP/GADD153 (middle) or actin (bottom). Arrow indicates the cleaved, transcriptionally active form of ATF6. B. Cleavage of caspase-3 in irestatin-treated cells under hypoxia. HT1080 cells were cultured in normoxia (N) or under hypoxia for 36 hours (H 36) in absence or presence of irestatin 9389 (2.5 μM). Arrows indicate proteolytically cleaved caspase-3. C. Colony formation assay. HT1080 cells were treated as in B under normoxia (N) or hypoxia for 48 hours (H 48). Cells were harvested, counted, and allowed to grow under normal culture conditions for 11-12 days. Colonies were visualized with crystal violet staining. D. Quantification of clonogenic survival assay. Values represent the mean+/−SEM from at least 4 independent experiments. E. TUNEL staining of cells treated as in C. F. Quantification of TUNEL-positive cells. Values represent the mean+/− SEM from at least 3 experiments. […] Cells were harvested at the indicated times and counted by hemocytometer. Values represent the mean calculated from triplicate experiments+/−SEM. […]
smiles,measurement,setting,value
Cc1csc(NC(=O)CSc2nc3c(c(C(F)(F)F)c2C#N)CCC3)n1 [Compound 9389],phosphorylation of JNK1 during Tm-induced ER stress,phospho-JNK1,failed to block the phosphorylation of JNK1
same,decrease in viability,[1]; dox present (no Flag-XBP-1s),~60 fold
same,survival of hypoxic cells expressing Flag-XBP-1s,[1]; no dox,minimal effect on the survival
